Assay results from the NIST ThermoML archive (doi:10.1016/j.fluid.2013.03.008).

Details: Liquid, Closed cell (Static) method

CCCCCCCCCCCCCC(=O)OCC [ethyl tetradecanoate]
Details	vapor or sublimation pressure [kPa]
392.17 K	0.1
398.52 K	0.15
404.27 K	0.2
410.95 K	0.3
416.1 K	0.4
419.65 K	0.5
425.69 K	0.65
430.55 K	0.8
434.91 K	1
439.1 K	1.2
443.82 K	1.5

CCCCCCCCCCCCCCCC(=O)OCC [ethyl hexadecanoate]
Details	vapor or sublimation pressure [kPa]
412.63 K	0.1
419.36 K	0.15
425.07 K	0.2
433.31 K	0.3
438.71 K	0.4
442.68 K	0.5
448.35 K	0.65
452.99 K	0.8
457.98 K	1
462.64 K	1.2
468.07 K	1.5
